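Test compounds were applied to cells in 96-well plates for 48 hours at 5 doses. TGI is the concentration that stops growth completely.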
What was measured:
Assay in all cases: inhibition of tumour cell growth, NCI panel, 48 h
786-0 renal = test system: 786-0 renal
A498 renal = test system: A498 renal
A549 NSCLC = test system: A549 NSCLC
ACHN renal = test system: ACHN renal
CAKI-1 renal = test system: CAKI-1 renal
CCRF-CEM leukemia = test system: CCRF-CEM leukemia
COLO 205 colon = test system: COLO 205 colon
DLD-1 colon = test system: DLD-1 colon
DMS 114 small cell lung = test system: DMS 114 small cell lung
DMS 273 small cell lung = test system: DMS 273 small cell lung
EKVX NSCLC = test system: EKVX NSCLC
HCC-2998 colon = test system: HCC-2998 colon
HCT-116 colon = test system: HCT-116 colon
HCT-15 colon = test system: HCT-15 colon
HL-60(TB) leukemia = test system: HL-60(TB) leukemia
HOP-18 NSCLC = test system: HOP-18 NSCLC
HOP-62 NSCLC = test system: HOP-62 NSCLC
HOP-92 NSCLC = test system: HOP-92 NSCLC
HT29 colon = test system: HT29 colon
IGROV1 ovarian = test system: IGROV1 ovarian
K-562 leukemia = test system: K-562 leukemia
KM12 colon = test system: KM12 colon
KM20L2 colon = test system: KM20L2 colon
LOX IMVI melanoma = test system: LOX IMVI melanoma
LXFL 529 NSCLC = test system: LXFL 529 NSCLC
M14 melanoma = test system: M14 melanoma
M19-MEL melanoma = test system: M19-MEL melanoma
MALME-3M melanoma = test system: MALME-3M melanoma
MOLT-4 leukemia = test system: MOLT-4 leukemia
NCI-H226 lung = test system: NCI-H226 lung
NCI-H23 lung = test system: NCI-H23 lung
NCI-H460 lung = test system: NCI-H460 lung
NCI-H522 lung = test system: NCI-H522 lung
OVCAR-3 ovarian = test system: OVCAR-3 ovarian
OVCAR-4 ovarian = test system: OVCAR-4 ovarian
OVCAR-5 ovarian = test system: OVCAR-5 ovarian
OVCAR-8 ovarian = test system: OVCAR-8 ovarian
RPMI-8226 leukemia = test system: RPMI-8226 leukemia
RXF 393 renal = test system: RXF 393 renal
RXF-631 renal = test system: RXF-631 renal
SF-268 CNS = test system: SF-268 CNS
SF-295 CNS = test system: SF-295 CNS
SF-539 CNS = test system: SF-539 CNS
SK-MEL-2 melanoma = test system: SK-MEL-2 melanoma
SK-MEL-28 melanoma = test system: SK-MEL-28 melanoma
SK-MEL-5 melanoma = test system: SK-MEL-5 melanoma
SK-OV-3 ovarian = test system: SK-OV-3 ovarian
SN12C renal = test system: SN12C renal
SNB-19 CNS = test system: SNB-19 CNS
SNB-75 CNS = test system: SNB-75 CNS
SR leukemia = test system: SR leukemia
SW-620 colon = test system: SW-620 colon
TK-10 renal = test system: TK-10 renal
U251 CNS = test system: U251 CNS
UACC-257 melanoma = test system: UACC-257 melanoma
UACC-62 melanoma = test system: UACC-62 melanoma
UO-31 renal = test system: UO-31 renal

In the case of `CCN(C(=N)C#N)c1ccccc1`, the TGI (786-0 renal) is reported as over 60.3 µM, the TGI (A498 renal) is reported as over 100 µM and the TGI (A549 NSCLC) is reported as over 100 µM. It also gave a TGI (ACHN renal) of over 100 µM, a TGI (CAKI-1 renal) of over 100 µM and a TGI (CCRF-CEM leukemia) of over 85.1 µM. The TGI (COLO 205 colon) was over 100 µM, the TGI (DLD-1 colon) was over 65.6 µM and the TGI (DMS 114 small cell lung) was over 88.2 µM. The TGI (DMS 273 small cell lung) was over 58.3 µM, the TGI (EKVX NSCLC) was over 100 µM and the TGI (HCC-2998 colon) was over 100 µM. It also gave a TGI (HCT-116 colon) of over 100 µM, a TGI (HCT-15 colon) of over 69.2 µM and a TGI (HL-60(TB) leukemia) of over 70.2 µM. It also gave a TGI (HOP-18 NSCLC) of over 100 µM, a TGI (HOP-62 NSCLC) of over 100 µM and a TGI (HOP-92 NSCLC) of over 100 µM. For the same compound, the TGI (HT29 colon) was over 100 µM, the TGI (IGROV1 ovarian) was over 100 µM and the TGI (K-562 leukemia) was over 100 µM. The TGI (KM12 colon) was over 100 µM, the TGI (KM20L2 colon) was over 100 µM and the TGI (LOX IMVI melanoma) was over 100 µM. For the same compound, the TGI (LXFL 529 NSCLC) was over 100 µM, the TGI (M14 melanoma) was over 100 µM and the TGI (M19-MEL melanoma) was over 95.4 µM. It also gave a TGI (MALME-3M melanoma) of over 100 µM, a TGI (MOLT-4 leukemia) of over 100 µM and a TGI (NCI-H226 lung) of over 100 µM. It also gave a TGI (NCI-H23 lung) of over 100 µM, a TGI (NCI-H460 lung) of over 100 µM and a TGI (NCI-H522 lung) of over 100 µM. It also gave a TGI (OVCAR-3 ovarian) of over 100 µM, a TGI (OVCAR-4 ovarian) of over 100 µM and a TGI (OVCAR-5 ovarian) of over 100 µM. The TGI (OVCAR-8 ovarian) was over 100 µM, the TGI (RPMI-8226 leukemia) was over 100 µM and the TGI (RXF 393 renal) was over 100 µM. The TGI (RXF-631 renal) was over 100 µM, the TGI (SF-268 CNS) was over 100 µM and the TGI (SF-295 CNS) was over 100 µM. It also gave a TGI (SF-539 CNS) of 27.6 µM, a TGI (SK-MEL-2 melanoma) of over 100 µM and a TGI (SK-MEL-28 melanoma) of over 100 µM. The TGI (SK-MEL-5 melanoma) was over 100 µM, the TGI (SK-OV-3 ovarian) was over 100 µM and the TGI (SN12C renal) was over 100 µM. The TGI (SNB-19 CNS) was over 100 µM, the TGI (SNB-75 CNS) was over 100 µM and the TGI (SR leukemia) was over 100 µM. The TGI (SW-620 colon) was over 49.8 µM, the TGI (TK-10 renal) was over 100 µM and the TGI (U251 CNS) was over 100 µM. For the same compound, the TGI (UACC-257 melanoma) was over 100 µM, the TGI (UACC-62 melanoma) was over 100 µM and the TGI (UO-31 renal) was over 100 µM.

Reference: PubChem BioAssay (NCI)
